According to patent US4220643A, “Nitrosourea pentose compounds” (priority 1977, dated 1980):

How the values were obtained:
experimental tumors = conditions: wide variety of experimental tumors; refers to U.S. Pat. No. 4,086,415; cited from earlier work
[1] = Acute toxicity in intraperitoneal administration to BDF1 mice; conditions: mouse, in vivo, ip
From the text: The nitrosourea compounds according to this invention are further characterized by their low toxicity. Thus, acute toxicity of the compounds in intraperitoneal administration to BDF1 mice is as follows: […]

Leukemia L 1210 cells = experiment: Anti-leukemic activity on Leukemia L 1210 in mice (60 days observation); format: in vivo, mice (male BDF1); conditions: for ILS (percentage increase in life-span) / Mean survival days: 60 days observation
Protocol: The anti-leukemic activity of both the anomers of this invention was tested on Leukemia L 1210 in mice, details of which are given below. By way of comparison, the 1-methyl homologue of the β-anomer of this invention, i.e. 1-methyl-1-nitroso-3-(β-D-ribofuranosyl) urea (refer to T. Suami et al., Japanese Patent Prepublication No. 83365/75), was tested in a similar way.
Male BDF1 mice, aged about 7-weeks old and weighing 22±3 g were used in groups of three animals each for the test of compounds No. 1 and No. 2 or of two animals each for the test of compound No. 3.
Leukemia L 1210 cells were used. For the test of compounds No. 1 and No. 2, 2×10^6 cells/0.04 ml/mouse were intraperitoneally inoculated and for the test of compound No. 3, 1.8×10^6 /0.04 ml/mouse were intraperitoneally inoculated.
The test compound was dissolved in a physiological salt solution to give a series of solutions in predetermined concentrations and 0.1 ml of the each solution was administered intraperitoneally to each mouse once a day from the 24th hour after the tumor cell inoculation for 3 consecutive days for the test of compounds No. 1 and No. 2 or for 2 consecutive days for the test of compound No. 3. The anti-leukemic activity of the compounds tested was assessed by mean survival days, percentage increase in life-span, number of survivors after 60 days observation and the volume of ascites. The percentage increase in life-span (ILS) was calculated as follows: […]
T: The mean survival days of the treated animals
C: The mean survival days of the untreated animals
The control test for this purpose was carried out in the same way as that used for the test of compounds No. 1 and No. 2 or for the test of compound No. 3 except that 0.1 ml of the physiological salt solution was administered in place of the solution of the test compound.

[2] = 1 mg/kg i.p. once daily, 3 consecutive days
[3] = 2 mg/kg i.p. once daily, 3 consecutive days
[4] = 2 mg/kg i.p. once daily, 3 consecutive days, untreated control 4.5 ml
[5] = 4 mg/kg i.p. once daily, 3 consecutive days
[6] = 4 mg/kg i.p. once daily, 3 consecutive days, untreated control 4.5 ml
[7] = 8 mg/kg i.p. once daily, 3 consecutive days
[8] = 8 mg/kg i.p. once daily, 3 consecutive days, untreated control 4.5 ml
[9] = 16 mg/kg i.p. once daily, 3 consecutive days
[10] = 16 mg/kg i.p. once daily, 3 consecutive days, untreated control 4.5 ml
[11] = dose not given, i.p. once daily, 3 consecutive days
[12] = 50 mg/kg i.p. once daily, 2 consecutive days
[13] = 100 mg/kg i.p. once daily, 2 consecutive days
[14] = 200 mg/kg i.p. once daily, 2 consecutive days
[15] = 250 mg/kg i.p. once daily, 2 consecutive days

Structure (SMILES)	LD50 [1] [mg/kg]	Number of survivors (after 60 days) (Leukemia L 1210 cells; [3])	ILS (percentage increase in life-span) (Leukemia L 1210 cells; [3]) [%]	Mean survival days (Leukemia L 1210 cells; [3]) [days]	Volume of ascites (Leukemia L 1210 cells; [4]) [mL]	Number of survivors (after 60 days) (Leukemia L 1210 cells; [5])	ILS (percentage increase in life-span) (Leukemia L 1210 cells; [5]) [%]	Mean survival days (Leukemia L 1210 cells; [5]) [days]	Volume of ascites (Leukemia L 1210 cells; [6]) [mL]	Number of survivors (after 60 days) (Leukemia L 1210 cells; [7])	ILS (percentage increase in life-span) (Leukemia L 1210 cells; [7]) [%]	Mean survival days (Leukemia L 1210 cells; [7]) [days]	Volume of ascites (Leukemia L 1210 cells; [8]) [mL]	Number of survivors (after 60 days) (Leukemia L 1210 cells; [9])	ILS (percentage increase in life-span) (Leukemia L 1210 cells; [9]) [%]	Mean survival days (Leukemia L 1210 cells; [9]) [days]	Volume of ascites (Leukemia L 1210 cells; [10]) [mL]	other results
O=NN(CCCl)C(=O)N[C@@H]1O[C@H](CO)[C@@H](O)[C@H](O)[C@H]1O [GANU, 1-(2-chloroethyl)-3-(β-D-glucopyranosyl)-1-nitrosourea]	–	–	–	–	–	–	–	–	–	–	–	–	–	–	–	–	–	Antitumor activity, in words (experimental tumors): broad spectrum of antitumor activity against a wide variety of experimental tumors
O=NN(CCCl)C(=O)N[C@H]1O[C@H](CO)[C@@H](O)[C@H]1O [compound 1, 1-(2-chloroethyl)-1-nitroso-3-(α-D-ribofuranosyl) urea]	34	0/3	50.0	15.3	0	2/3	> 383.0	> 48.3	0	2/3	> 323.0	> 42.3	0	0/3	13.0	11.3	0	Number of survivors (after 60 days) (Leukemia L 1210 cells; [2]): 0/3; ILS (percentage increase in life-span) (Leukemia L 1210 cells; [2]): 37.0%; Mean survival days (Leukemia L 1210 cells; [2]): 13.7 days; Volume of ascites (Leukemia L 1210 cells; 1 mg/kg i.p. once daily, 3 consecutive days, untreated control 4.5 ml): 1.7 mL
O=NN(CCCl)C(=O)N[C@@H]1O[C@H](CO)[C@@H](O)[C@H]1O [compound 2, 1-(2-chloroethyl)-1-nitroso-3-(β-D-ribofuranosyl) urea]	30	1/3	> 223.0	> 32.3	0	2/3	> 360.0	> 46.0	0	3/3	> 500.0	> 60.0	0	0/3	-13.0	8.7	0	Number of survivors (after 60 days) (Leukemia L 1210 cells; [11]): 0/3; ILS (percentage increase in life-span) (Leukemia L 1210 cells; [11]): 53.0%; Mean survival days (Leukemia L 1210 cells; [11]): 15.3 days; Volume of ascites (Leukemia L 1210 cells; dose not given, i.p. once daily, 3 consecutive days, untreated control 4.5 ml): 2.5 mL
CN(N=O)C(=O)N[C@@H]1O[C@H](CO)[C@@H](O)[C@H]1O [compound 3, 1-methyl-1-nitroso-3-(β-D-ribofuranosyl) urea, reference compound]	–	–	–	–	–	–	–	–	–	–	–	–	–	–	–	–	–	Number of survivors (after 60 days) (Leukemia L 1210 cells; [12]): 0/2; ILS (percentage increase in life-span) (Leukemia L 1210 cells; [12]): 50.0%; Mean survival days (Leukemia L 1210 cells; [12]): 15.0 days; Volume of ascites (Leukemia L 1210 cells; 50 mg/kg i.p. once daily, 2 consecutive days, untreated control 5.3 ml): 4.6 mL; Number of survivors (after 60 days) (Leukemia L 1210 cells; [13]): 0/2; ILS (percentage increase in life-span) (Leukemia L 1210 cells; [13]): 50.0%; Mean survival days (Leukemia L 1210 cells; [13]): 15.0 days; Volume of ascites (Leukemia L 1210 cells; 100 mg/kg i.p. once daily, 2 consecutive days, untreated control 5.3 ml): 0.7 mL; Number of survivors (after 60 days) (Leukemia L 1210 cells; [14]): 0/2; ILS (percentage increase in life-span) (Leukemia L 1210 cells; [14]): 80.0%; Mean survival days (Leukemia L 1210 cells; [14]): 18.0 days; Volume of ascites (Leukemia L 1210 cells; 200 mg/kg i.p. once daily, 2 consecutive days, untreated control 5.3 ml): 0.3 mL; Number of survivors (after 60 days) (Leukemia L 1210 cells; [15]): 0/2; ILS (percentage increase in life-span) (Leukemia L 1210 cells; [15]): 15.0%; Mean survival days (Leukemia L 1210 cells; [15]): 11.5 days; Volume of ascites (Leukemia L 1210 cells; 250 mg/kg i.p. once daily, 2 consecutive days, untreated control 5.3 ml): 0.6 mL
